# Literature values, collected in patent publication US10001483B2, “Methods for the treatment of Kaposi's sarcoma or KSHV-induced lymphoma using immunomodulatory compounds, and uses of biomarkers” (Celgene Corporation, priority 2015, dated 2018).
# Where two headings read alike, the source gives them in different places.
# Settings: patients, cited from earlier work
SMILES,Cmax (approved dose 25 mg) [µg/mL],Plasma Serum Concentration (approved dose 25 mg) [µM],Cmax (approved dose 200 mg) [µg/mL],Plasma Serum Concentration (approved dose 200 mg) [µM]
"Nc1cccc2c1CN(C1CCC(=O)NC1=O)C2=O (stereo not shown) [lenalidomide, 3-(4-amino-1-oxo 1,3-dihydro-2H-isoindol-2-yl) piperidine-2,6-dione]",0.451,2,,
"O=C1CCC(N2C(=O)c3ccccc3C2=O)C(=O)N1 (stereo not shown) [thalidomide, 2-(2,6-dioxopiperidin-3-yl)-1H-isoindole-1,3(2H)-dione]",,,1.76,7
